Test results from patent US20260034227A1, “AZLACTONE-BASED POLYMERS AS A SCAFFOLD FOR DIVERSE APPLICATIONS IN DRUG AND GENE DELIVERY” (University of Mississippi, priority 2022, published 2026).

Test: Pharmacokinetics of DBAC generated from polymer-drug conjugate (UPLC-MS/MS)
Format: in vivo, CD-1 mice
Conditions: CD1 mice; for F: oral relative to intravenous, 10 mg/kg
Description: UPLC-MS/MS. Chromatography was performed on an AcquityTM UPLC system (Waters Corp, Milford, MA) with an autosampler temperature at 10° C. Waters Acquity UPLC® BEH Phenyl column (3.0×50 mm, 1.7 μm particle size) was used for chromatographic separation with linear gradient elution consisting of (A) 90% acetonitrile and (B) 10% of 0.2% formic acid in Milli-Q water as mobile phases. The flow rate was set at 0.30 mL/min, and the injection volume was 2 μL. An Acquity Tandem Quadrupole Mass Detector (Xevo TQ-S; Waters Corp, Milford, MA) in positive electrospray ionization mode was used for mass spectrometric detection. For collision-induced dissociation, argon was used as collision gas. The cone voltage and collision energy were set at 40 V and 24 V for DBAC and 40 V and 26 V for the tolbutamide (IS), respectively. Quantification was performed using the monitoring of multiple reaction monitoring (MRM) of following transitions: m/z 276/186 for DBAC and m/z 271/90.9 for IS. […] Pharmacokinetics of […]. All procedures were performed in compliance with the University of Mississippi Animal Care and Use Committee and following the National Institutes of Health (NIH) guidelines. […] Either DBAC or […] were administered at 10 mg/kg through oral gavage or retro-orbital IV injection at a volume of 0.1 mL. The vehicle for DBAC was 10% absolute alcohol, 10% cremophor and 80% Milli-Q water, whereas the […] polymer was administered in 100% PBS. […] Blood was collected by cardiac puncture and stored in K2 EDTA tubes (SAI Infusion Technologies, #MVCB-E-300). Mice were then perfused through heart with PBS (Life Technologies, #10-010-072). Plasma was harvested by centrifuging the blood using Eppendorf […] Centrifuge (Germany) at 5,000 rpm for 5 min and stored frozen at -80±10° C. until analysis. […] Sample preparation for DBAC detection. A simple protein precipitation method was followed for extraction of DBAC from mice plasma. To an aliquot of 50 μL of plasma or tissue (GI tract, heart, lung, spleen, liver or kidney) samples, tolbutamide (internal standard, IS) solution (5 μL of 20 ng/ml) was added and mixed for 15 s on a cyclomixer (Thermo Scientific, IN, USA). After precipitation with 500 μL of acetonitrile, the mixture was vortexed for 2 min, followed by centrifugation for 10 min at 14,000 rpm on an accuSpin Micro 17R (Fisher Scientific, USA) at 5° C. An aliquot of 150 μL of clear supernatant was transferred into vials and 2 μL was injected into the UPLC-MS/MS system for analysis. The primary stock solutions of DBAC and tolbutamide (IS) were prepared in methanol at 1.0 mg/mL concentration. Working solutions of calibration standards and quality control (QC) samples were prepared by dilution with methanol and stored at -20° C. A working stock of the IS solution (20 ng/ml) was prepared in methanol and stored at -20° C.

[1] = GI tract, intravenous 10 mg/kg conjugate
[2] = GI tract, oral 10 mg/kg conjugate
[3] = Heart, intravenous 10 mg/kg conjugate
[4] = Kidney, intravenous 10 mg/kg conjugate
[5] = Kidney, oral 10 mg/kg conjugate
[6] = Liver, intravenous 10 mg/kg conjugate
[7] = Lung, intravenous 10 mg/kg conjugate
[8] = Plasma, intravenous 10 mg/kg conjugate
[9] = Plasma, oral 10 mg/kg conjugate
[10] = Spleen, intravenous 10 mg/kg conjugate

AUC0-α [1]: 18544 ± 156 ng·h/g
CO [1]: 4899 ± 1104 ng/g
t1/2 [1]: 6.97 ± 1.03 h
AUC0-α [2]: 95643 ± 1023 ng·h/g
Tmax [2]: 1.25 ± 0.53 h
F (GI tract): >100 ± 47.5%
AUC0-α [3]: 8914 ± 512 ng·h/g
CO [3]: 4961 ± 715 ng/g
t1/2 [3]: 2.20 ± 0.78 h
AUC0-α (Heart, oral 10 mg/kg conjugate): 1008 ± 95.6 ng·h/g
Tmax (Heart, oral 10 mg/kg conjugate): 4.38 ± 0.53 h
F (Heart): 11.3 ± 2.57%
AUC0-α [4]: 10575 ± 1910 ng·h/g
CO [4]: 41296 ± 2103 ng/g
t1/2 [4]: 3.49 ± 0.59 h
AUC0-α [5]: 490 ± 101 ng·h/g
Tmax [5]: 0.50 ± 0.00 h
F (Kidney): 4.64 ± 2.59%
AUC0-α [6]: 17457 ± 3832 ng·h/g
CO [6]: 36898 ± 2501 ng/g
t1/2 [6]: 2.24 ± 0.37 h
AUC0-α (Liver, oral 10 mg/kg conjugate): 1464 ± 346 ng·h/g
Tmax (Liver, oral 10 mg/kg conjugate): 0.63 ± 0.25 h
F (Liver): 8.38 ± 1.98%
AUC0-α [7]: 1772 ± 141 ng·h/g
CO [7]: 1326 ± 202 ng/g
t1/2 [7]: 3.73 ± 0.47 h
AUC0-α (Lung, oral 10 mg/kg conjugate): 1315 ± 85.6 ng·h/g
Tmax (Lung, oral 10 mg/kg conjugate): 1.25 ± 0.68 h
F (Lung): 74.2 ± 25.3%
AUC0-α [8]: 1586 ± 125 ng·h/mL
CO [8]: 7216 ± 1023 ng/mL
t1/2 [8]: 1.09 ± 0.12 h
AUC0-α [9]: 120 ± 65.0 ng·h/mL
Cmax [9]: 119 ± 25.3 ng/mL
Tmax [9]: 0.75 ± 0.29 h
F (Plasma): 7.59 ± 2.48%
AUC0-α [10]: 1089 ± 124 ng·h/g
CO [10]: 1026 ± 248 ng/g
t1/2 [10]: 2.27 ± 0.55 h
Substance: N-(2-hydroxyethyl)-N,N-dimethyl-2-oxo-2-(2-oxo-2H-chromen-3-yl)ethanaminium [DBAC]
